From PMC7663272, “Discovery of Tricyclic Pyranochromenone as Novel Bruton’s Tyrosine Kinase Inhibitors with In Vivo Antirheumatic Activity” (International Journal of Molecular Sciences, 2020)

Tests used:
CYP2D6 = molecular target: T1, CYP2D6 (Homo sapiens, UniProt P10635); experiment: P450-Glo CYP inhibition assay, CYP2D6; assay type: in vitro ADME
T1 construct: purchased Promega V9890
Description: The potential for CYP450 inhibition (CYP1A2, 2C9, 2C19, 2D6, and […]) was assessed using Promega P450-Glo^TM CYP450 assay systems. Luciferin-ME served as the substrate for CYP1A2, and the inhibitor α-naphthoflavone was used as a positive control. Luciferin-H was used as the substrate for CYP2C9, and the inhibitor sulfaphenazole was used as a positive control. Luciferin-H EGE was selected as the substrate for CYP2C19, whereas the inhibitor amitriptyline served as a positive control. Luciferin-ME EGE was used as the substrate for CYP2D6, whereas the inhibitor quinidine served as a positive control. Luciferin-BE was used as the substrate for CYP3A4, whereas the inhibitor ketoconazole was used as a positive control. The assays were performed using the excitation and emission wavelengths recommended by the manufacturer. Briefly, a CYP enzyme and a P450-Glo™ substrate were combined in potassium phosphate (0.1 M KPO4) buffer, with or without a test compound of interest, and […]. The reaction was initiated by adding two volumes of 2 times concentrated NADPH regeneration system. […] Luminescence was subsequently measured using a Tecan Infinite M1000 PRO microplate reader (Tecan Group Ltd., Switzerland). The percent inhibition was calculated relative to that of the positive control at a fixed concentration. […]

[1] = test system: TNF-α production in LPS-stimulated THP-1 cells; experiment: LPS-induced TNF-α release in THP-1 cells (ELISA); assay type: cell-based, human
From the text: (§1) BTK plays a critical role in high-affinity IgE receptor (FcεRI) and B cell receptor (BCR) signaling, resulting in the release of proinflammatory cytokines. Therefore, BTK inhibitor treatment can reduce the production of both lymphoid and myeloid cytokines. […] We examined the cellular effects of compound 8 on the production of cytokines IL-6 and TNF-α in LPS-stimulated THP-1 cells. Following treatment with LPS alone or LPS and compound 8, the levels of cytokines secreted by THP-1 cells were assessed (Figure 5). LPS increased the output of proinflammatory cytokines.
(§2) THP-1 cells were obtained from the American Type Culture Collection (ATCC, Manassas, VA, USA). The cells were cultured in RPMI-1640 supplemented with 10% FBS, 1% P/S, and 0.05 mM 2-mercaptoethanol and maintained at 37 °C and 5% CO2 in a humidified incubator. Cytokine secretion (hIL-6 and TNF-α) in the culture supernatants of the THP-1 cells was measured using a human cytokine ELISA kit (Abcam). Differentiated THP-1 cells were treated with agents and LPS for 24 h, after which the cell culture media was centrifuged at 2000× g for 10 min to remove debris. Briefly, each sample (50 μL) or standard was mixed with the appropriate detection antibody and incubated for 1 h at room temperature on a plate shaker. […] Subsequently, 100 μL of stop solution was added to each well, and the optical density (OD) was measured at 450 nm. […]

[2] = test system: IL-6 production in LPS-stimulated THP-1 cells; experiment: LPS-induced IL-6 release in THP-1 cells (ELISA); assay type: cell-based, human
From the text: as §1, §2

ITK = molecular target: T2, ITK (Homo sapiens, UniProt Q08881); experiment: HotSpot kinase enzymatic assay, ITK; assay type: biochemical
T2 construct: purchased Reaction Biology Corporation
T2 sequence (Q08881 1-620): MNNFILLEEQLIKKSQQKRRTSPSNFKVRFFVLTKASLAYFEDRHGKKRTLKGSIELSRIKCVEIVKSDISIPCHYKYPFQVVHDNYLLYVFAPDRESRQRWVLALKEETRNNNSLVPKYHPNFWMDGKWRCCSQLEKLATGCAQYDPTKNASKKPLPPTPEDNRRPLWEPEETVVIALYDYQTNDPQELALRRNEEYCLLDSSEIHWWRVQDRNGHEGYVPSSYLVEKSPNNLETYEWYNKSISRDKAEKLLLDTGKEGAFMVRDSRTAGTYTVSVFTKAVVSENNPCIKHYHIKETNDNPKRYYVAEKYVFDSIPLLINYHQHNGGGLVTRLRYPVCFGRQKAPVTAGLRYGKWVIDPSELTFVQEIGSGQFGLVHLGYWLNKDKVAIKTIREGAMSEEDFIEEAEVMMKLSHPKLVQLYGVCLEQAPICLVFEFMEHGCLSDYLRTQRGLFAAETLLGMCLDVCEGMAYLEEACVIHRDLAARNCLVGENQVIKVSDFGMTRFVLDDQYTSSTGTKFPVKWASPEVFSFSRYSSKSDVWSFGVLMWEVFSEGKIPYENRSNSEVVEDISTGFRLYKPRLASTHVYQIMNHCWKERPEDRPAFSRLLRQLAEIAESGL
Description: Therefore, efforts have focused on developing new compounds with good selectivity profiles. […] Compound 8 was selective against BTK. The biochemical activities of compound 8 differed among TEC family kinases. […] The inhibitory potential of compound 8 differed between members of the EGFR family. […] The inhibitory activity of compound 8 against JAK3 was also low.
Kinase enzymatic assays for BTK, BMX, TXK, TEC, ITK, EGFR, ERBB2, ERBB4, and JAK3 were performed at Reaction Biology Corporation (www.reactionbiology.com, Malvern, PA, USA) using the HotSpot assay platform. Briefly, specific kinase/substrate pairs and the required cofactors were prepared in a reaction buffer comprising 20 mM HEPES (pH 7.5), 10 mM MgCl2, 1 mM EGTA, 0.02% Brij35, 0.02 mg/mL BSA, 0.1 mM Na3VO4, 2 mM DTT, and 1% DMSO. The compounds were added to the reaction mixture and allowed to incubate. Approximately 20 min later, a mixture of ATP (Sigma-Aldrich, St. Louis, MO, USA) and ^33P ATP (PerkinElmer, Waltham, MA, USA) was added to the reaction mixture at a final concentration of 10 μM. The reactions were performed at room temperature for 120 min; subsequently, the reactions were spotted onto P81 ion exchange filter papers (Whatman Inc., Maidstone, UK). Any unbound phosphate was removed by thoroughly washing the filter papers with 0.75% phosphoric acid. […]

[3] = LPS-stimulated differentiated THP-1 cells, 24 h, ELISA
[4] = compound at 10 μM, ibrutinib at 2 μM

T1 sequence (P10635 whole entry): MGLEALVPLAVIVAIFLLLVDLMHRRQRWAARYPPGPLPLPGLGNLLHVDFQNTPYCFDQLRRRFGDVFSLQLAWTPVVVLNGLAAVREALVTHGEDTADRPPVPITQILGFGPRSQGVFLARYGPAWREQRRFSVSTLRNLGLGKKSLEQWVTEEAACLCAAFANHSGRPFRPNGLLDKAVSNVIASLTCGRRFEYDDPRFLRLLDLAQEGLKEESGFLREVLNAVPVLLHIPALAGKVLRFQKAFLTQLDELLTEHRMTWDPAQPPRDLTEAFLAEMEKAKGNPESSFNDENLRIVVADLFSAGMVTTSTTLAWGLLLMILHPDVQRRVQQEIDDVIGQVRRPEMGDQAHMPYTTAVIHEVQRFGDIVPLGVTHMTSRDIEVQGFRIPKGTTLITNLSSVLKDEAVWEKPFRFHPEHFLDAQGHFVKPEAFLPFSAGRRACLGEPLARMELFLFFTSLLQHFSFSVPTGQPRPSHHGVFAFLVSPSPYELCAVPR

## C=CC(=O)O[C@H]1Cc2cc3ccc(=O)oc3cc2OC1(C)C [Compound 8, (7S)-(+)-Acrylic acid, 8,8-dimethyl-2-oxo-6,7-dihydro-2H,8H-pyrano [3,2-g]chromen-7-yl ester]
CYP2D6
  CYP2D6 inhibition (in words): weakly inhibited
CYP2D6; % inhibition of human CYP isozymes at 10 μM
  CYP inhibition 2D6: 18.9%
[1]; [3]
  production of TNF-α: significantly and dose-dependently reduced
[1]; [4]
  inhibitory activity on TNF-α production at 10 μM, compared with ibrutinib: comparable with that of ibrutinib at 2 μM
[2]; [3]
  production of IL-6: significantly and dose-dependently reduced
[2]; [4]
  inhibitory activity on IL-6 production at 10 μM, compared with ibrutinib: comparable with that of ibrutinib at 2 μM
ITK
  inhibitory activity against ITK (in words): weak inhibitory activity
ITK; 10 µM, mean of two experiments
  inhibition at 10 µM: 17.3%
